Here are results for seven compounds from EP1571449A1 (priority 2004, dated 2005).

One assay concerns the target PrP^C (Homo sapiens, UniProt P04156). The class given is binding.
For a further assay, the target named is plasma PrP^C (Homo sapiens, UniProt P04156). The conditions noted are these: plasma mixed with 400 µM CuCl2, copper containing gradient, 16 h at 100,000 x g, 4 °C.

Read-outs that look alike come from different tables or passages of the source.

For `O=C(O)CN(CCN(CC(=O)O)CC(=O)O)CC(=O)O` [EDTA, reference compound], on PrP^C, the “PrP^C detection, assay 4” value was “blocking effects”; the “PrP^C detection, assay 5” value is given as “complete inhibition of the copper effects”; the “PrP^C detection, assay 6” value is recorded as “the copper-induced changes of PrP^C disappeared”; the “PrP^C detection, assay 7” value is “improved detection of PrP^C was observed”. Besides, the “effect of EDTA on the copper-induced assay sensitivity increase” value at PrP^C is given as “dose-related reduction of copper-induced assay sensitivity increase”.
Turning to `O=S(=O)([O-])[O-].[Zn+2]` [ZnSO4], the “effect on detection of bound prion proteins (assay sensitivity)” value on PrP^C is on record as “improvement in sensitivity”.
Consider `OO` [H2O2, hydrogen peroxide], for which, at PrP^C, the “dose relation of the effect on assay sensitivity” value is listed as “dose-related effects on the assay sensitivity” and the “effect on detection of bound prion proteins (assay sensitivity)” value is “enhanced the detection of bound prion proteins”.
Consider `O=S(=O)([O-])[O-].[Cu+2]` [CuSO4], for which, at PrP^C, the “dose relation of the effect on assay sensitivity” value is recorded as “dose-related effects on the assay sensitivity”, the “effect on detection of bound prion proteins (assay sensitivity)” value is reported as “improvement in sensitivity”, the increase in sensitivity entry is “more than 3000 fold” and the “plasma dilution at which twice the backgound signal was detected” value is 156250 times diluted.
Turning to `[Cl][Cu][Cl]` [CuCl2], the “migration pattern of PrP^C immunoreactivity in sucrose gradient” value on plasma PrP^C is “the high molecular weight peak, present in EDTA plasma, disappeared”. In addition, on PrP^C, the “PrP^C detection, assay 2” value was “much more improved detection of PrP^C” and the “PrP^C detection, assay 3” value is on record as “slightly worse detection of PrP^C as compared to assay 2”. For the same compound, on PrP^C (15 min), the “effect on detection of bound prion proteins (assay sensitivity)” value is “improvement in sensitivity”.
Turning to `O=CO` [formic acid], the “effect on detection of bound prion proteins (assay sensitivity)” value at PrP^C is recorded as “had no effect on the assay”.
As for `[Cl][Mn][Cl]` [MnCl2], on PrP^C, the “effect on detection of bound prion proteins (assay sensitivity)” value is on record as “improvement in sensitivity” and the “times higher concentration needed for the same signal increasing effect as compared to zinc” value is “about 12 times”.
